Experimental findings from US20250353891A1 (MEDIMMUNE LIMITED, priority 2022, published 2025) are described below.

Each structure is given as a SMILES string. pEC50: −log10 of the molar value. Starred links: 1 amine or outer side, 2 acyl side, 3 side chain; linkers in the order of their positions; H or OH if unused. Non-standard residues stand in square brackets, D forms with d. Residues, ends and D or L forms follow the SMILES beside them. Groups on a side chain read outwards from the residue. *: point of attachment. γGlu = O=C(O)[C@H](CCC(=O)[*:2])N[*:1]; Stearoyl = CCCCCCCCCCCCCCCCCC(=O)*; Palmitoyl = CCCCCCCCCCCCCCCC(=O)*; αMeF = C[C@](N)(Cc1ccccc1)C(=O)O; Myristoyl = CCCCCCCCCCCCCC(=O)*; αMeS = C[C@](N)(CO)C(=O)O; PEG2 = NCCOCCOCCC(=O)O; Aib = CC(C)(N)C(=O)O

The target of assay [1] is human glucagon receptor (hGCGR) (Homo sapiens, UniProt P47871). The assay is described as follows: cAMP production (HTRF) in CHO cells expressing hGCGR. It counts as cell-based. Further details: expressed in transfected cells. The note with it: Table 6, peptides modified at position 17; cAMP in CHO hGCGR cells; geometric mean; read-out: hGluc-R EC50. An outline of the steps:
(§1)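 Potency values represent EC50 from 4-parameter logistic curves of HTRF % Delta F signal. Receptor-expressing CHO cells (hGCGR 2×10^5 cells/mL, hGLP-1R 1×10^5 cells/mL) were exposed for 30 min at room temperature before two-step cAMP detection.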

The target of assay [2] is human GLP-1 receptor (hGLP-1R) (Homo sapiens, UniProt P43220). Put plainly: cAMP production (HTRF) in CHO cells expressing hGLP-1R. It counts as cell-based. Further details: expressed in transfected cells. The note with it: for % Relative Potency Ratio: Table 6, % GLP-1R activity relative to GLP-1 / % GlucR activity relative to glucagon. A digest of the protocol:
as §1

Chain of human glucagon receptor (hGCGR) (P47871 26-477): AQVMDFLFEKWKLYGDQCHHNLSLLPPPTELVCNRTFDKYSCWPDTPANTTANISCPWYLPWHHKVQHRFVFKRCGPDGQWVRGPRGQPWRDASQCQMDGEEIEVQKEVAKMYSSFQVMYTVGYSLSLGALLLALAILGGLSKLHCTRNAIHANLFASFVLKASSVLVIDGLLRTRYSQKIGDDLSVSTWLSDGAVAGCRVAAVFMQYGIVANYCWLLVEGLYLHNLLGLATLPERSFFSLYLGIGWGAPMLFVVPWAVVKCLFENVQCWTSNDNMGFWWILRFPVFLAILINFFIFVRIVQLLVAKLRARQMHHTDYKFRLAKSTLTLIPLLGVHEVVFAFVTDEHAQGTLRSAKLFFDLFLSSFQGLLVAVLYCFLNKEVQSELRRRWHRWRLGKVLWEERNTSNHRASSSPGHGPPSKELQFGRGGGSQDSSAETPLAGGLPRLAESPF
Chain of human GLP-1 receptor (hGLP-1R) (P43220 24-463): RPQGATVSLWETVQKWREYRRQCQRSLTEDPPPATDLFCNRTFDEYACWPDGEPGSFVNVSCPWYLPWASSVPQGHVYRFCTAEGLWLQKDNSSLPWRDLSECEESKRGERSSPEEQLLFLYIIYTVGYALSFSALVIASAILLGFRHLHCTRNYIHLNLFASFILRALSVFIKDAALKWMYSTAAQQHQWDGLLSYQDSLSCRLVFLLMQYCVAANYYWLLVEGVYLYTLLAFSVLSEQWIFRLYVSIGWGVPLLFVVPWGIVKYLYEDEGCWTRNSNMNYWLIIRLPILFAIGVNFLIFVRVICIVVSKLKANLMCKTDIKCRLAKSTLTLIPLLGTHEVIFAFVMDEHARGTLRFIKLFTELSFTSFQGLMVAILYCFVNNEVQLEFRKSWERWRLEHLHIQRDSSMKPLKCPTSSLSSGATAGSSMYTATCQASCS

In the case of `CCCCCCCCCCCCCCCC(=O)N[C@@H](CCC(=O)N[C@@H](CCC(=O)NCCOCCOCCC(=O)NCCOCCOCCC(=O)NCCCC[C@H](NC(=O)[C@H](CO)NC(=O)[C@H](CC(=O)O)NC(=O)[C@H](CC(C)C)NC(=O)[C@@H](NC(=O)[C@H](CCCCN)NC(=O)[C@H](CO)NC(=O)[C@@H](NC(=O)[C@H](CC(=O)O)NC(=O)[C@H](CO)NC(=O)[C@@H](NC(=O)[C@](C)(Cc1ccccc1)NC(=O)[C@H](CO)NC(=O)CNC(=O)[C@H](CCC(N)=O)NC(=O)C(C)(C)NC(=O)[C@@H](N)Cc1c[nH]cn1)[C@@H](C)O)C(C)C)[C@@H](C)CC)C(=O)N[C@@H](C)C(=O)N[C@@H](C)C(=O)N[C@@H](CCC(N)=O)C(=O)N[C@@H](CC(=O)O)C(=O)N[C@@](C)(Cc1ccccc1)C(=O)N[C@H](C(=O)N[C@@H](CCC(N)=O)C(=O)NC(C)(C)C(=O)N[C@H](C(=O)N[C@H](C(=O)N[C@@H](CC(N)=O)C(=O)N[C@H](C(N)=O)[C@@H](C)O)[C@@H](C)CC)[C@@H](C)CC)C(C)C)C(=O)O)C(=O)O` [Peptide 125] (H-H[Aib]QGS[αMeF]TSDVSKILDSK([PEG2-PEG2-γGlu-γGlu-Palmitoyl])AAQD[αMeF]VQ[Aib]IINT-NH2; N-terminus assumed), the pEC50 in assay [1] was 11.18. In addition, the “% Relative Potency Ratio” value in assay [2] turned out to be 23.0.
For `CCCCCCCCCCCCCCCCCC(=O)N[C@@H](CCC(=O)NCCOCCOCCC(=O)NCCOCCOCCC(=O)NCCCC[C@H](NC(=O)[C@H](CO)NC(=O)[C@H](CC(=O)O)NC(=O)[C@H](CC(C)C)NC(=O)[C@@H](NC(=O)[C@H](CCCCN)NC(=O)[C@H](CO)NC(=O)[C@@H](NC(=O)[C@H](CC(=O)O)NC(=O)[C@H](CO)NC(=O)[C@@H](NC(=O)[C@](C)(Cc1ccccc1)NC(=O)[C@H](CO)NC(=O)CNC(=O)[C@H](CCC(N)=O)NC(=O)C(C)(C)NC(=O)[C@@H](N)Cc1c[nH]cn1)[C@@H](C)O)C(C)C)[C@@H](C)CC)C(=O)N[C@@H](C)C(=O)N[C@@H](C)C(=O)N[C@@H](CCC(N)=O)C(=O)N[C@@H](CC(=O)O)C(=O)N[C@@](C)(Cc1ccccc1)C(=O)N[C@H](C(=O)N[C@@H](CCC(N)=O)C(=O)NC(C)(C)C(=O)N[C@H](C(=O)N[C@H](C(=O)N[C@@H](CC(N)=O)C(=O)N[C@H](C(N)=O)[C@@H](C)O)[C@@H](C)CC)[C@@H](C)CC)C(C)C)C(=O)O` [Peptide 127] (H-H[Aib]QGS[αMeF]TSDVSKILDSK([PEG2-PEG2-γGlu-Stearoyl])AAQD[αMeF]VQ[Aib]IINT-NH2; N-terminus assumed), in that order: 10.90 and 25.1.
Take `CCCCCCCCCCCCCCCC(=O)N[C@@H](CCC(=O)NCCOCCOCCC(=O)NCCOCCOCCC(=O)NCCCC[C@H](NC(=O)[C@H](CO)NC(=O)[C@H](CC(=O)O)NC(=O)[C@H](CC(C)C)NC(=O)[C@@H](NC(=O)[C@H](CCCCN)NC(=O)[C@H](CO)NC(=O)[C@@H](NC(=O)[C@H](CC(=O)O)NC(=O)[C@H](CO)NC(=O)[C@@H](NC(=O)[C@](C)(Cc1ccccc1)NC(=O)[C@H](CO)NC(=O)CNC(=O)[C@H](CCC(N)=O)NC(=O)C(C)(C)NC(=O)[C@@H](N)Cc1c[nH]cn1)[C@@H](C)O)C(C)C)[C@@H](C)CC)C(=O)N[C@@H](C)C(=O)N[C@@H](C)C(=O)N[C@@H](CCC(N)=O)C(=O)N[C@@H](CC(=O)O)C(=O)N[C@@](C)(Cc1ccccc1)C(=O)N[C@H](C(=O)N[C@@H](CCC(N)=O)C(=O)NC(C)(C)C(=O)N[C@H](C(=O)N[C@H](C(=O)N[C@@H](CC(N)=O)C(=O)N[C@H](C(N)=O)[C@@H](C)O)[C@@H](C)CC)[C@@H](C)CC)C(C)C)C(=O)O` [Peptide 128] (H-H[Aib]QGS[αMeF]TSDVSKILDSK([PEG2-PEG2-γGlu-Palmitoyl])AAQD[αMeF]VQ[Aib]IINT-NH2; N-terminus assumed): in assay [1], the pEC50 was 11.33. Further, the “% Relative Potency Ratio” value in assay [2] came to 11.8.
For `CCCCCCCCCCCCCC(=O)N[C@@H](CCC(=O)NCCOCCOCCC(=O)NCCOCCOCCC(=O)NCCCC[C@H](NC(=O)[C@H](CO)NC(=O)[C@H](CC(=O)O)NC(=O)[C@H](CC(C)C)NC(=O)[C@@H](NC(=O)[C@H](CCCCN)NC(=O)[C@H](CO)NC(=O)[C@@H](NC(=O)[C@H](CC(=O)O)NC(=O)[C@H](CO)NC(=O)[C@@H](NC(=O)[C@](C)(Cc1ccccc1)NC(=O)[C@H](CO)NC(=O)CNC(=O)[C@H](CCC(N)=O)NC(=O)C(C)(C)NC(=O)[C@@H](N)Cc1c[nH]cn1)[C@@H](C)O)C(C)C)[C@@H](C)CC)C(=O)N[C@@H](C)C(=O)N[C@@H](C)C(=O)N[C@@H](CCC(N)=O)C(=O)N[C@@H](CC(=O)O)C(=O)N[C@@](C)(Cc1ccccc1)C(=O)N[C@H](C(=O)N[C@@H](CCC(N)=O)C(=O)NC(C)(C)C(=O)N[C@H](C(=O)N[C@H](C(=O)N[C@@H](CC(N)=O)C(=O)N[C@H](C(N)=O)[C@@H](C)O)[C@@H](C)CC)[C@@H](C)CC)C(C)C)C(=O)O` [Peptide 129] (H-H[Aib]QGS[αMeF]TSDVSKILDSK([PEG2-PEG2-γGlu-Myristoyl])AAQD[αMeF]VQ[Aib]IINT-NH2), in that order: 11.39 and 17.6.
For `CCCCCCCCCCCCCCCCCC(=O)N[C@@H](CCC(=O)N[C@@H](CCC(=O)NCCOCCOCCC(=O)NCCOCCOCCC(=O)NCCCC[C@H](NC(=O)[C@H](CO)NC(=O)[C@H](CC(=O)O)NC(=O)[C@H](CC(C)C)NC(=O)[C@@H](NC(=O)[C@H](CCCCN)NC(=O)[C@H](CO)NC(=O)[C@@H](NC(=O)[C@H](CC(=O)O)NC(=O)[C@H](CO)NC(=O)[C@@H](NC(=O)[C@](C)(Cc1ccccc1)NC(=O)[C@H](CO)NC(=O)CNC(=O)[C@H](CCC(N)=O)NC(=O)[C@](C)(CO)NC(=O)[C@@H](N)Cc1c[nH]cn1)[C@@H](C)O)C(C)C)[C@@H](C)CC)C(=O)N[C@@H](C)C(=O)N[C@@H](C)C(=O)N[C@@H](CCC(N)=O)C(=O)N[C@@H](CC(=O)O)C(=O)N[C@@](C)(Cc1ccccc1)C(=O)N[C@H](C(=O)N[C@@H](CCC(N)=O)C(=O)NC(C)(C)C(=O)N[C@H](C(=O)N[C@H](C(=O)N[C@@H](CC(N)=O)C(=O)N[C@H](C(N)=O)[C@@H](C)O)[C@@H](C)CC)[C@@H](C)CC)C(C)C)C(=O)O)C(=O)O` [Peptide 130] (H-H[αMeS]QGS[αMeF]TSDVSKILDSK([PEG2-PEG2-γGlu-γGlu-Stearoyl])AAQD[αMeF]VQ[Aib]IINT-NH2; N-terminus assumed), the pEC50 in assay [1] is 10.48; in assay [2] (Table 6, peptides modified at position 17, cAMP in CHO hGLP-1R cells, geometric mean, read-out: hGLP-1R EC50) it was 11.96. Besides, the “% Relative Potency Ratio” value in assay [2] is 59.9.
Regarding `CCCCCCCCCCCCCCCC(=O)N[C@@H](CCC(=O)N[C@@H](CCC(=O)NCCOCCOCCC(=O)NCCOCCOCCC(=O)NCCCC[C@H](NC(=O)[C@H](CO)NC(=O)[C@H](CC(=O)O)NC(=O)[C@H](CC(C)C)NC(=O)[C@@H](NC(=O)[C@H](CCCCN)NC(=O)[C@H](CO)NC(=O)[C@@H](NC(=O)[C@H](CC(=O)O)NC(=O)[C@H](CO)NC(=O)[C@@H](NC(=O)[C@](C)(Cc1ccccc1)NC(=O)[C@H](CO)NC(=O)CNC(=O)[C@H](CCC(N)=O)NC(=O)[C@](C)(CO)NC(=O)[C@@H](N)Cc1c[nH]cn1)[C@@H](C)O)C(C)C)[C@@H](C)CC)C(=O)N[C@@H](C)C(=O)N[C@@H](C)C(=O)N[C@@H](CCC(N)=O)C(=O)N[C@@H](CC(=O)O)C(=O)N[C@@](C)(Cc1ccccc1)C(=O)N[C@H](C(=O)N[C@@H](CCC(N)=O)C(=O)NC(C)(C)C(=O)N[C@H](C(=O)N[C@H](C(=O)N[C@@H](CC(N)=O)C(=O)N[C@H](C(N)=O)[C@@H](C)O)[C@@H](C)CC)[C@@H](C)CC)C(C)C)C(=O)O)C(=O)O` [Peptide 131] (H-H[αMeS]QGS[αMeF]TSDVSKILDSK([PEG2-PEG2-γGlu-γGlu-Palmitoyl])AAQD[αMeF]VQ[Aib]IINT-NH2; N-terminus assumed), the pEC50 in assay [1] is 10.75. Further, the “% Relative Potency Ratio” value in assay [2] was determined as 68.9.
Regarding `CCCCCCCCCCCCCC(=O)N[C@@H](CCC(=O)N[C@@H](CCC(=O)NCCOCCOCCC(=O)NCCOCCOCCC(=O)NCCCC[C@H](NC(=O)[C@H](CO)NC(=O)[C@H](CC(=O)O)NC(=O)[C@H](CC(C)C)NC(=O)[C@@H](NC(=O)[C@H](CCCCN)NC(=O)[C@H](CO)NC(=O)[C@@H](NC(=O)[C@H](CC(=O)O)NC(=O)[C@H](CO)NC(=O)[C@@H](NC(=O)[C@](C)(Cc1ccccc1)NC(=O)[C@H](CO)NC(=O)CNC(=O)[C@H](CCC(N)=O)NC(=O)[C@](C)(CO)NC(=O)[C@@H](N)Cc1c[nH]cn1)[C@@H](C)O)C(C)C)[C@@H](C)CC)C(=O)N[C@@H](C)C(=O)N[C@@H](C)C(=O)N[C@@H](CCC(N)=O)C(=O)N[C@@H](CC(=O)O)C(=O)N[C@@](C)(Cc1ccccc1)C(=O)N[C@H](C(=O)N[C@@H](CCC(N)=O)C(=O)NC(C)(C)C(=O)N[C@H](C(=O)N[C@H](C(=O)N[C@@H](CC(N)=O)C(=O)N[C@H](C(N)=O)[C@@H](C)O)[C@@H](C)CC)[C@@H](C)CC)C(C)C)C(=O)O)C(=O)O` [Peptide 132] (H-H[αMeS]QGS[αMeF]TSDVSKILDSK([PEG2-PEG2-γGlu-γGlu-Myristoyl])AAQD[αMeF]VQ[Aib]IINT-NH2; N-terminus assumed), the pEC50 in assay [1] was 10.46. The “% Relative Potency Ratio” value in assay [2] is 71.5.
